The values that follow come from patent US5877210A, “Phosphotyrosine phosphatase inhibitors or phosphotyrosine kinase activators for controlling cellular proliferation” (priority 1995, dated 1999).

One assay concerns A2780/Tax22. Kind of assay: In vitro cytotoxicity, XTT assay. Here is the method: (§1) The vanadate compound pV(phen) was tested for in vitro cytotoxicity in a panel of human tumor cell lines. The cell lines used were a human colon carcinoma cell line, HCT116, and two drug-resistant sublines. The HCT116(VM46) subline was selected for resistance to VM-26 and expresses the multidrug resistant (MDR) phenotype including resistance to lipophilic anticancer drugs such as paclitaxel, VP-16, VM-26, doxorubicin, and vinblastine. This cell line overexpresses P-glycoprotein, a cell surface drug efflux pump, which limits accumulation of anticancer drugs such as the ones mentioned above. […] The compound pV(phen) was also evaluated in the ovarian carcinoma cell line A2780 and a paclitaxel resistant subline A2780-Tax22.
(§2) In the cytotoxicity assays, cells were plated and 24 hr later drugs were added and serially diluted. After 72 hr of continuous drug exposure, the tetrazolium dye XTT was added. A dehydrogenase enzyme in live cells reduces the XTT to a form that absorbs light at 450 nm which can be quantitated spectrophotometrically. The greater absorbance, the greater is the number of live cells. The results are expressed as a IC50 which is a drug concentration required to inhibit cell proliferation (i.e., absorbance at 450 nm) to 50% of that of untreated control cells.
On the technique in general: Tetrazolium dyes change colour on reduction, which living cells bring about.

The next assay concerns A2780. Kind of assay: In vitro cytotoxicity, XTT assay. Particulars: Homo sapiens, A2780, 72 h, read-out: IC50 (cytotoxicity). How it is done: as §1, §2
For the next assay, the system named is HCT116(VM)46. The experiment in a line: In vitro cytotoxicity, XTT assay. How it is done:
as §1, §2

Another assay relates to HCT116(VP)35. Kind of assay: In vitro cytotoxicity, XTT assay. Here is the method: as §1, §2
In the next assay the test system is HCT116. The experiment in a line: In vitro cytotoxicity, XTT assay. Particulars: Homo sapiens, HCT-116, 72 h, read-out: IC50 (cytotoxicity). How it is done:
as §1, §2

For another assay, the system named is Ramos cells. The experiment in a line: Anti-phosphotyrosine western blot of cell lysates. The assay is classed as cell-based, human. The note with it: FIG. 11; whole cell lysates. For orientation: In western blotting, separated proteins are transferred to a membrane and probed.
The test system of assay [1] is calf intestinal alkaline phosphatase. The note with it: reported by Cortizo et al.; cited from earlier work.
For assay [2], the system named is Ramos. The note with it: previous studies (Uckun et al. 1992); cited from earlier work.
Assay [3] has as its system Ramos. The experiment in a line: Clonogenic assay in methylcellulose. The assay is classed as cell-based, human. The note with it: doses of 10 and 25 μM. Here is the method:
The selective cytotoxicity of BMLOV was examined in clonogenic assays. Cells were grown in methylcellulose media and the number of colonies formed after seven days of treatment with various doses of the drug were determined. The clonogenic assays were performed with six replicates for each treatment as described [F. M. Uckun et al., J. Exp. Med. 163:347-368 (1986); F. M. Uckun & J. A. Ledbetter, Proc. Natl. Acad. Sci. USA 85:8603-8607 (1988)). The data is given plus/minus the standard error of the mean.
For assays of cellular proliferation, cells were grown five days in the presence of the indicated concentrations of BMLOV, pulsed 6 hr with [^3 H]-thymidine (New England Nuclear, Boston, Mass.), and counted in a liquid scintillation counter. Human peripheral blood lymphocytes (PBL) from normal volunteers were isolated from lymphocyte separation medium (Litton Bionetics, Kensington, Md.) by density gradient centrifugation. Monocytes were depleted from PBL by two rounds of plastic absorption for 30 minutes at 37° C. B cells were enriched for by negative selection using complement plus monoclonal antibodies to CD2, CD3, CD4, and CD8 for complement depletion. Clonogenic assays of colony formation in methylcellulose medium were performed as previously described (F. M. Uckun et al. (1992), supra).

The subject of assay [4] is Ramos. Kind of assay: Clonogenic assay in methylcellulose. The assay is classed as cell-based, human. The note with it: Ramos B cells.

With `CC(=O)O[C@H]1C(=O)[C@@]2(C)[C@H]([C@H](OC(=O)c3ccccc3)[C@]3(O)C[C@H](OC(=O)[C@H](O)[C@@H](NC(=O)c4ccccc4)c4ccccc4)C(C)=C1C3(C)C)[C@]1(OC(C)=O)CO[C@@H]1C[C@@H]2O` [Paclitaxel, reference compound], the IC50 in the assay with A2780/Tax22 (Homo sapiens, A2780, 72 h, read-out: IC50 (cytotoxicity)) worked out at 75 nM; with A2780, 4 nM; in the assay with HCT116(VM)46 (Homo sapiens, HCT-116/VM46, 72 h, read-out: IC50 (cytotoxicity)), 226 nM; in the assay on HCT116(VP)35 (Homo sapiens, HCT-116, 72 h, read-out: IC50 (cytotoxicity)) it was 2 nM; in the assay with HCT116, 3 nM. In addition, the “fold resistance relative to parental cell line” value in the assay with A2780/Tax22 (vs A2780, 4320 min) is 18 fold; in the assay on HCT116(VM)46 (vs HCT116, 4320 min) it was 75 fold; in the assay with HCT116(VP)35 (vs HCT116, 4320 min), 0.7 fold.
As for `CC(=O)C=C([O-])c1ccccc1.CC(=O)C=C([O-])c1ccccc1.[O]=[V+2]` [vanadyl 1-benzoyl acetonate], the “induction of cellular tyrosine phosphorylation by analogs” value (from here on “induction … by analogs”) with Ramos cells was “strongly induced cellular tyrosine phosphorylation”.
Regarding `[Na+].[Na+].[Na+].[O]=[V]([O-])([O-])[O-]` [sodium orthovanadate], the “concentration strongly inhibiting calf intestinal alkaline phosphatase” value in [1] is reported as “less than 20 μM”. For the same compound, the “effect on Ramos cells in clonogenic assays” value in the assay with Ramos [2] was “only gave slight effects”.
For the compound `CC(=O)/C=C(/C)[O-].CC(=O)/C=C(/C)[O-].[O]=[V+2]` [vanadyl acetylacetonate], in the assay on Ramos cells, the “induction … by analogs” value was “strongly induced cellular tyrosine phosphorylation”.
For the compound `CC(=O)C=C(C)[O-].CC(=O)C=C(C)[O-].[Cu+2]` [cupric acetylacetonate], the “induction … by analogs” value in the assay with Ramos cells was “induced tyrosine phosphorylation, but in a different pattern than for the vanadyl compounds”. The “sensitivity in clonogenic assay, in words” value in the assay on Ramos [3] is “sensitive to the compound”. Besides, the Colonies in the assay with Ramos [4] (1 μM cupric acetylacetonate) was determined as 5749; in the assay with Ramos [4] (5 μM cupric acetylacetonate), 226; in the assay on Ramos [4] (10 μM cupric acetylacetonate), 127; with Ramos [4] (25 μM cupric acetylacetonate), 31.

As usually defined, the IC50 is the concentration at which inhibition is half-maximal.
